Assay: in vitro
Settings: human, hela cells, % viability

Compared with `CN(CC(=O)O)C(=O)c1ccc(Oc2cccc(Br)c2)nc1` [CBK306485], `Cn1ccnc1CNC(=O)c1cccc(OCC(=O)N2CCCCC2)c1` [CBK306635] is lower in viability at 28.5 h, 10 µM: 90.7% for the first, 86.8% for the second.

First: CCc1c[nH]c(SCC(=O)c2cc(C)n(C3CCS(=O)(=O)C3)c2C)n1 (stereo not shown) [CBK306486]
Second: CCCCC1C(=O)N(C)CCN1C(=O)c1cc(C)c(CC)n(C)c1=O (stereo not shown) [CBK306527]
The viability at 28.5 h, 10 µM of the first is lower: 83.5% for the first, 91.2% for the second.

Compared with `CCC(C)CC(=O)NS(=O)(=O)c1cc(C#N)ccc1C` (stereo not shown) [CBK306487], `Cc1cc(N)n(CC(=O)NCCCn2ccnc2C(C)C)n1` [CBK306632] is higher in viability at 28.5 h, 10 µM: 88.1% for the first, 89.3% for the second.

Going from `COCCn1c(SCc2cn3c(C)cc(C)nc3n2)nc(C)c1C` [CBK306489] to `CCn1c(C)nnc1SCCNc1cc(C)nc2ccnn12` [CBK306607], the viability at 28.5 h, 10 µM rises from 89.3% to 99.7%.

Going from `CCOC(=O)c1csc(C2CCCN2C(=O)c2cc(SC)ccc2Cl)n1` (stereo not shown) [CBK306491] to `CNC(=O)C1CCCN1C(=O)c1nnn(Cc2ccc(F)cc2F)c1C` (stereo not shown) [CBK306496], the viability at 28.5 h, 10 µM rises from 88% to 93.2%.

First: COc1ccccc1CC(=O)NC(CCSC)c1nnc2ccccn12 (stereo not shown) [CBK306492]
Second: CCC(NC(=O)CCOC)c1cn2cccnc2n1 (stereo not shown) [CBK306560]
The viability at 28.5 h, 10 µM of the first is higher: 92.1% for the first, 88.2% for the second.

Compared with `CS(=O)(=O)c1ccc2ncnc(NCC(CO)Cc3ccccn3)c2c1` (stereo not shown) [CBK306493], `Cc1nn(CC(=O)N(C)CCn2ccnc2C)c(=O)c2ccccc12` [CBK306536] is higher in viability at 28.5 h, 10 µM: 88.7% for the first, 91.8% for the second.

Going from `CCc1ncsc1C(=O)NC1CCCN(c2ccn(C)n2)C1=O` (stereo not shown) [CBK306498] to `CCCn1nccc1C(=O)NC1CCCN(Cc2cccc(OC)c2)C1` (stereo not shown) [CBK306563], the viability at 28.5 h, 10 µM falls from 104% to 84.9%.

Going from `Cc1c(C(=O)N(C)C2CCNCC2)nnn1-c1ccc2ncccc2c1` [CBK306500C] to `Cc1ccc(C(=O)NCc2cccnc2N(C)C2CCCCC2)cn1` [CBK306514], the viability at 28.5 h, 10 µM rises from 84.8% to 116%.

Going from `NCC(NC(=O)c1cnc(-c2ccncc2)s1)C1CCCCC1` (stereo not shown) [CBK306502C] to `CN(c1ncccc1CNC(=O)c1cccnc1)C1CCCCC1` [CBK306555], the viability at 28.5 h, 10 µM falls from 104% to 103%.

First: COCCN(Cc1nccs1)C(=O)C1CCc2nn(C)c(=O)n2C1 (stereo not shown) [CBK306506]
Second: COCCN(Cc1cnn(C)c1)C(=O)Cc1ccccn1 [CBK306576]
The viability at 28.5 h, 10 µM of the first is lower: 103% for the first, 112% for the second.

First: Cn1ncc(N2CCN(C(=O)CCN3CCCCCC3=O)CC2)cc1=O [CBK306508]
Second: Cn1ncc(N2CCC(CNC(=O)c3ccc(F)cc3Cl)C2)cc1=O (stereo not shown) [CBK306643]
The viability at 28.5 h, 10 µM of the first is higher: 109% for the first, 97.1% for the second.

Going from `COC(=O)N1CCN(C(=O)c2cc(C(C)C)n3ncnc3n2)CC1` [CBK306509] to `Cc1cccn2c(CN(C)C(C)C(N)=O)c(C(=O)N3CCOCC3)nc12` (stereo not shown) [CBK306592], the viability at 28.5 h, 10 µM rises from 85.4% to 105%.

Compared with `Cc1nn(C)c(C)c1CCc1nc(CN2CCN(C)CC2)no1` [CBK306510], `CCn1nc(C2CCCC2)nc1-c1cnc2ccnn2c1C` [CBK306626] is lower in viability at 28.5 h, 10 µM: 110% for the first, 87.1% for the second.

Going from `CCn1cc(CN(C)Cc2nccs2)c2cc(C(=O)O)ncc21` [CBK306512] to `CCn1ncnc1CN(C)Cc1ccc2c(c1)CN(C)C2` [CBK306530], the viability at 28.5 h, 10 µM rises from 85.3% to 86.1%.

First: Cc1cnc2c(Cl)c(C(=O)N3CCN(C)C4(CCNCC4)C3)nn2c1 [CBK306513]
Second: COc1ccc2c(c1)c(C(=O)N1CCC3(CCNCC3)CC1)c(C)n2C [CBK306562]
The viability at 28.5 h, 10 µM of the first is higher: 92.9% for the first, 72.9% for the second.

Compared with `COc1cc2c(cc1-c1cn(CCN3CCCOC3=O)nn1)CCC2` [CBK306515], `CCCn1cc(NC(=O)NCc2cc3c(cc2OC)CCC3)nn1` [CBK306614] is lower in viability at 28.5 h, 10 µM: 107% for the first, 86.4% for the second.

Going from `Cc1cn2cccc(C(=O)N3CCCCC3CCN3CCOCC3)c2n1` (stereo not shown) [CBK306518] to `Cc1cccn2c(CN3CC(O)C3)c(C(=O)N3CCCCC3)nc12` [CBK306662], the viability at 28.5 h, 10 µM falls from 90.3% to 88.3%.

Compared with `CCC(NC(=O)Nc1cc(N2CCOCC2)ccc1Cl)c1nccs1` (stereo not shown) [CBK306519], `O=C(Cn1cccnc1=O)NC(c1ccc2c(c1)CCO2)C1CC(O)C1` (stereo not shown) [CBK306595] is lower in viability at 28.5 h, 10 µM: 93.2% for the first, 75.3% for the second.

First: OC(c1cccs1)C1CCN(Cc2ccc(-n3cncn3)cc2)CC1 (stereo not shown) [CBK306523]
Second: O=C(CCN1CCn2nc(C(O)C3CC3)cc2C1)NCc1cccs1 (stereo not shown) [CBK306603]
The viability at 28.5 h, 10 µM of the first is higher: 97.8% for the first, 93.1% for the second.

First: O=c1c2sc(-c3ccc(F)cc3)cc2ncn1CC1(O)CCCNC1 (stereo not shown) [CBK306525]
Second: CCn1nc(C)cc1C(=O)N1Cc2cnn(Cc3ccc(F)cc3)c2C1 [CBK306574]
The viability at 28.5 h, 10 µM of the first is lower: 88.4% for the first, 96.7% for the second.

Going from `CCN(C(=O)Nc1cccnc1Oc1ccc(F)cc1)C1CCOCC1` [CBK306535] to `O=C(N[C@@H]1CCOC[C@H]1Oc1ccc(CO)cc1)c1ccc(F)cc1` [CBK306571], the viability at 28.5 h, 10 µM rises from 89.5% to 112%.

First: CN(C(=O)NC1CCN(Cc2cccc(O)c2)CC1)C1CCS(=O)(=O)C1 (stereo not shown) [CBK306538]
Second: CC(=O)c1c(-c2cccc(C(=O)N(C)C3CCN(C)C3)c2)cnn1C (stereo not shown) [CBK306633]
The viability at 28.5 h, 10 µM of the first is lower: 83.5% for the first, 106% for the second.

First: COCCNS(=O)(=O)c1cccc2c1CN(C(=O)c1ccccc1)CC2 [CBK306539]
Second: Cc1ccc(OCc2occc2C(=O)N2CCCn3cncc3C2)cc1 [CBK306618]
The viability at 28.5 h, 10 µM of the first is higher: 106% for the first, 92.7% for the second.

Compared with `Cc1ccc(F)c(OC2(C(=O)O)CCN(Cc3cccc(C)n3)CC2)c1` [CBK306541], `CCn1cc(CN2CCC(Oc3cc(C)ccc3F)(C(=O)O)CC2)cn1` [CBK306644] is lower in viability at 28.5 h, 10 µM: 98.8% for the first, 96.1% for the second.

Going from `CC(C)Cn1cncc1CNC(=O)Nc1ccc2[nH]nnc2c1` [CBK306549] to `CCOc1ccc(NC(=O)N(CCOC)Cc2cnn(C)c2)cc1Cl` [CBK306697], the viability at 28.5 h, 10 µM falls from 91.9% to 90.3%.

First: Cc1c(C(=O)N2CCn3nc(CO)cc3C2)n(C)c2ccc(F)cc12 [CBK306552]
Second: COCCn1c(CO)nnc1[C@H]1C[C@@H](NC(=O)c2cc(C)ccc2Cl)C1 [CBK306564]
The viability at 28.5 h, 10 µM of the first is higher: 97.7% for the first, 81.2% for the second.

Compared with `CCn1nc(CC(C)C)cc1C(=O)NCCc1cn2cccnc2n1` [CBK306553], `COc1ccccc1-n1nc(CC(C)C)nc1C(C)NS(C)(=O)=O` (stereo not shown) [CBK306660] is lower in viability at 28.5 h, 10 µM: 98.9% for the first, 95.6% for the second.

First: Nc1nc(NCCOc2ccccc2F)cc(C2CCOC2)n1 (stereo not shown) [CBK306559]
Second: O=C(NCC1CCOC1)c1ccc(-c2ccccc2CO)cc1 (stereo not shown) [CBK306616]
The viability at 28.5 h, 10 µM of the first is lower: 78.2% for the first, 107% for the second.

Compared with `N#Cc1cccnc1N1CCC(NC(=O)c2ccc3nccn3c2)CC1` [CBK306566], `N#Cc1cccnc1N1CCC(NC(=O)c2cc(Cl)c[nH]c2=O)CC1` [CBK306586] is higher in viability at 28.5 h, 10 µM: 95.1% for the first, 104% for the second.

Going from `COc1cccc2ncn(C(C)c3nc(C)sc3C)c(=O)c12` (stereo not shown) [CBK306570] to `Cc1cccc(OCC2CCCN(C(=O)CCc3nncn3C)C2)c1` (stereo not shown) [CBK306640], the viability at 28.5 h, 10 µM falls from 109% to 88.8%.

Compared with `Cc1nc(N)nc(NCC2CCN(C3CC3)C2)c1Cl` (stereo not shown) [CBK306575], `Cc1nc(CCNC(=O)N2CCC(Oc3cccnc3)CC2)sc1Cl` [CBK306636] is higher in viability at 28.5 h, 10 µM: 85.9% for the first, 93.8% for the second.

Compared with `OC[C@H]1CCN(Cc2cc(Cl)ccc2OCCCn2ccnc2)C[C@H]1O` [CBK306581], `CCn1ccnc1CN1CCOC(Cc2ccccc2Cl)C1` (stereo not shown) [CBK306625] is higher in viability at 28.5 h, 10 µM: 88.4% for the first, 94.5% for the second.

First: O=C(c1ccc(N2CCSCC2)nc1)N1CCC(N2CCOCC2)CC1 [CBK306582]
Second: O=C(O)C1(Oc2ccc3ccccc3c2)CCN(C2CCNCC2)CC1 [CBK306615]
The viability at 28.5 h, 10 µM of the first is lower: 78.6% for the first, 108% for the second.

Compared with `CCOc1ccc(-c2ccnc(N3C[C@@H](C)O[C@@H](C)C3)n2)cc1C(=O)O` [CBK306584], `CN(Cc1cnn(C)c1)C(=O)COCc1nc2cc(F)ccc2[nH]1` [CBK306687] is higher in viability at 28.5 h, 10 µM: 92.5% for the first, 94.3% for the second.

Compared with `CN(Cc1nc(-c2ccccc2)no1)C(=O)C1CC2(CCNCC2)CN1` (stereo not shown) [CBK306585], `CCOC(=O)C1(NC(=O)C2(Oc3cccnc3C)CCNCC2)CCC1` [CBK306688] is higher in viability at 28.5 h, 10 µM: 88.7% for the first, 89.9% for the second.

Compared with `CC(=O)N1CC2(CCN(Cc3nccn3C(C)C)CC2)CC1C(=O)O` (stereo not shown) [CBK306587], `CC(NC(=O)C1(Cn2ccnc2)CC1)c1nncn1C(C)C` (stereo not shown) [CBK306682] is higher in viability at 28.5 h, 10 µM: 93.7% for the first, 99.5% for the second.

First: CCC(O)Cn1nc(CCSC)nc1-c1cn(C)c(=O)[nH]c1=O (stereo not shown) [CBK306588]
Second: Cc1nn(C)cc1CN(C)CC(=O)Nc1nc2c(s1)CC(C)CC2 (stereo not shown) [CBK306669]
The viability at 28.5 h, 10 µM of the first is lower: 83.5% for the first, 90.6% for the second.

Compared with `Cc1ccc(C)c(NC(=O)CCNC(=O)c2cnn3cc(C)cnc23)c1` [CBK306590], `CC(=O)Nc1ccc(CNC(=O)CN(C)Cc2nc(C3CC3)no2)cc1` [CBK306695] is higher in viability at 28.5 h, 10 µM: 87.5% for the first, 114% for the second.

Going from `CCc1nccn1CCC(=O)N1CC(OCc2ccccc2F)C1` [CBK306597] to `Cc1[nH]c2ccccc2c1CCNC(=O)N(Cc1cnn(C)c1)C1CC1` [CBK306661], the viability at 28.5 h, 10 µM rises from 88.5% to 89%.

Going from `COc1ccnc(NC(c2cnn(C)c2)[C@H]2C[C@@H](O)C2)n1` (stereo partly shown) [CBK306617] to `O=C(NC(c1ccc2c(c1)CCO2)[C@H]1C[C@@H](O)C1)c1c[nH]c(=O)c(Cl)c1` (stereo partly shown) [CBK306634], the viability at 28.5 h, 10 µM falls from 97.8% to 95%.

Going from `O=C(NCCN1CCCCC1)C1CC(=O)N(Cc2ccncc2)C1` (stereo not shown) [CBK306629] to `CN(CCN1CCCC1)c1nccc(N2CCN[C@H]3CS(=O)(=O)C[C@H]32)n1` [CBK306692], the viability at 28.5 h, 10 µM falls from 100% to 85.6%.

Going from `CCN(CCn1cccn1)c1nc2nonc2nc1N(C)C` [CBK306630] to `CCCCC(c1cccnc1)N(C)C(=O)CCc1ccnn1C` (stereo not shown) [CBK306664], the viability at 28.5 h, 10 µM rises from 88.9% to 117%.

Compared with `COC(=O)C1CCCN1C(=O)C1(Oc2ccc(C)cc2)CCNCC1` (stereo not shown) [CBK306655], `CCS(=O)(=O)NC1CC(C)(C)Cc2c1cnn2-c1ccc(OC)cc1` (stereo not shown) [CBK306656] is higher in viability at 28.5 h, 10 µM: 96.5% for the first, 116% for the second.

First: CCCCSc1nc(N)cc(N2CCOCC(CN(C)C)C2)n1 (stereo not shown) [CBK306659]
Second: Cc1nc(O)cc(C2CCCN(C(=O)c3csc4c3CCCC4)C2)n1 (stereo not shown) [CBK306696]
The viability at 28.5 h, 10 µM of the first is higher: 103% for the first, 87.3% for the second.

For `CCN1CCN(Cc2cnc(-c3ccccn3)nc2)CC1=O` [CBK306678], the viability at 28.5 h, 10 µM was 99.9%.
